Activity calls are given as the source filed them. No cut-off for these calls is given here.
Columns and labels:
[1] = target: T1, Atypical chemokine receptor 3 (Homo sapiens, UniProt P25106); assay: (§1) Binding affinity to NanoLuc tagged human wild type ACKR3 expressed in HEK293G cells using furimazine as NanoLuc substrate preincubated for 1 hr in dark in presence of (R)-N-(3-(2-fluorophenyl)-2methylallyl)-3,4,5-trimethoxyN-(2-(1-methylpyrrolidin-2yl)ethyl)benzamide followed by substrate addition and measured after 5 mins by NanoBRET competition binding assay; format: cell-based
T1 sequence (P25106 whole entry): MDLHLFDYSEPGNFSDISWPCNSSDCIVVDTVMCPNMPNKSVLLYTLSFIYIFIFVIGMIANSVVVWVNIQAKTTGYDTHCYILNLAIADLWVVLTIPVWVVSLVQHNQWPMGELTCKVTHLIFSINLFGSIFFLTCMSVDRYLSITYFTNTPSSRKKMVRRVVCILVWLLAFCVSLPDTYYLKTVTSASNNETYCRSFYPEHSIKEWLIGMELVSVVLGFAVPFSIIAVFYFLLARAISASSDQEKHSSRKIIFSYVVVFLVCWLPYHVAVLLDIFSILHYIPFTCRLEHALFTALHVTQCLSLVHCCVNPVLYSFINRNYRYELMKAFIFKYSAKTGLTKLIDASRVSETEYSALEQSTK

[2] = target: T1, Atypical chemokine receptor 3; assay: as §1, with “NanoBRET” for “NanoBRET competition binding”; format: cell-based
[3] = target: T1, Atypical chemokine receptor 3; assay: Binding affinity to NanoLuc tagged human wild type ACKR3 expressed in HEK293G cells using furimazine as NanoLuc substrate preincubated for 1 hr in dark followed by substrate addition and measured after 5 mins by NanoBRET assay; format: cell-based; conditions: time 65.0 min
[4] = target: T1, Atypical chemokine receptor 3; assay: Binding affinity to ACKR3 (unknown origin) by [125I] CXCL12 displacement assay
[5] = target: T1, Atypical chemokine receptor 3; assay: (§2) Binding affinity to N-terminal SNAP-tagged ACKR3 (unknown origin) transfected in HEK293T cells assessed as internalization by measuring receptor colocalized intracellular fluorescence at 50 to 100 nM incubated for 30 mins by confocal microscopic analysis; format: cell-based; conditions: dose 50-100 nM
[6] = target: T1, Atypical chemokine receptor 3; assay: as §2, with “nM preincubated with (R)-N-(3-(2-fluorophenyl)-2-methylallyl)-3,4,5-trimethoxy-N-(2-(1-methylpyrrolidin-2-yl)ethyl)benzamide for 30 mins followed by fluorescent compound addition and further” for “nM”; format: cell-based; conditions: dose 50-100 nM

| Compound | Ki [1] [nM] | Kd [2] [nM] | Activity [3] | other results |
| --- | --- | --- | --- | --- |
| COc1ccc(C(=O)N(CCC2CCCN2C)C/C(C)=C/c2cccc(F)c2)cc1OC (centres undefined) | 631 | – | – | – |
| COc1cc(C(=O)N(CC[C@H]2CCCN2C)C/C(C)=C/c2ccccc2F)cc(OC)c1OC | – | – | – | EC50 [4]: 5.01 nM |
| COc1cc(C(=O)N(CC[C@@H]2CCCN2C)C/C(C)=C/c2ccccc2F)cc(OC)c1OC | – | – | – | EC50 [4]: 20 nM |
| Cc1ccc(C(=O)c2cn(Cc3cccc(Br)n3)c3ccccc3c2=O)cc1C | 39.8 | – | – | – |
| COc1cc(C(=O)N(CC[C@H]2CCCN2C)C/C(C)=C/c2ccccc2F)cc(OCCOCCNC(=O)CCCCCNC(=O)CCC2=[N+]3C(=Cc4c(C)cc(C)n4[B-]3(F)F)C=C2)c1OC | – | 81.3 | Active | – |
| COc1cc(C(=O)N(CC[C@H]2CCCN2C)C/C(C)=C/c2ccccc2F)cc(OCCNC(=O)CCCCCNC(=O)CCC2=[N+]3C(=Cc4c(C)cc(C)n4[B-]3(F)F)C=C2)c1OC | – | 12.9 | Active | Activity [5]: Active; Activity [6]: inactive |
| C/C(=C\c1ccccc1)CN(CCC1CCCN1C)C(=O)c1ccc2c(c1)OCCO2 (centres undefined) | 10000 | – | – | – |

Second part, led by results:

| Ki [1] [nM] | Kd [2] [nM] | Activity [3] | Compound | other results |
| --- | --- | --- | --- | --- |
| – | 151 | Active | COc1cc(C(=O)N(CC[C@H]2CCCN2C)C/C(C)=C/c2ccccc2F)cc(OCCOCCOCCNC(=O)CCCCCNC(=O)CCC2=[N+]3C(C=C2)Cc2c(C)cc(C)n2[B-]3(F)F)c1OC (some centres undefined) | – |
| 251 | – | – | COc1ccc(C(=O)N(CCC2CCCN2C)C/C(C)=C/c2ccccc2F)cc1OC (centres undefined) | – |
